Measurements: patent publication US7053107B2, “Indazole compounds and pharmaceutical compositions for inhibiting protein kinases, and methods for their use” (Agouron Pharmaceuticals, Inc., priority 2002, dated 2006)

How the values were obtained:
[1] = tested on: human umbilical vein endothelial cells (HUVEC); experiment: HUVEC Proliferation Assay (VEGF-stimulated); assay type: cell-based
Experimental: This assay determines the ability of a test compound to inhibit the growth factor-stimulated proliferation of human umbilical vein endothelial cells (“HUVEC”). HUVEC cells (passage 3–4, Clonetics, Corp.) were thawed into EGM2 culture medium (Clonetics Corp) in T75 flasks. Fresh EGM2 medium was added to the flasks 24 hours later. Four or five days later, cells were exposed to another culture medium (F12K medium supplemented with 10% fetal bovine serum (FBS), 60 μg/mL endothelial cell growth supplement (ECGS), and 0.1 mg/mL heparin). Exponentially-growing HUVEC cells were used in experiments thereafter. Ten to twelve thousand HUVEC cells were plated in 96-well dishes in 100 μl of rich, culture medium (described above). The cells were allowed to attach for 24 hours in this medium. The medium was then removed by aspiration and 105 μl of starvation media (F12K+1% FBS) was added to each well. After 24 hours, 15 μl of test agent dissolved in 1% DMSO in starvation medium or this vehicle alone was added into each treatment well; the final DMSO concentration was 0.1%. One hour later, 30 μl of VEGF (30 ng/mL) in starvation media was added to all wells except those containing untreated controls; the final VEGF concentration was 6 ng/mL. Cellular proliferation was quantified 72 hours later by MTT dye reduction, at which time cells were exposed for 4 hours MTT (Promega Corp.). Dye reduction was stopped by addition of a stop solution (Promega Corp.) and absorbance at 595λ was determined on a 96-well spectrophotometer plate reader.
IC50 values were calculated by curve-fitting the response of A^595 to various concentrations of the test agent; typically, seven concentrations separated by 0.5 log were employed, with triplicate wells at each concentration. For screening compound library plates, one or two concentrations (one well per concentration) were employed, and the % inhibition was calculated by the following formula: % inhibition=(control−test)[…](control−starvation) where
control=A^595 when VEGF is present without test agent
test=A^595 when VEGF is present with test agent
starvation=A^595 when VEGF and test agent are both absent.

FGF-R1 = target: T1, FGF-R1 (Homo sapiens, UniProt P11362, C488A/C584S/L457V); experiment: Fibroblast Growth Factor (FGF-R) spectrophotometric assay; assay type: biochemical; settings: 1 μM compound; read-out: FGF-P % inhibit @1 μM
T1 construct: starting from the endogenous methionine residue 456 to glutamate 766; made in house; host or cells: baculovirus vector expression system
Text: The intracellular kinase domain of human FGF-R1 was expressed using the baculovirus vector expression system starting from the endogenous methionine residue 456 to glutamate 766, according to the residue numbering system of Mohammadi et al., Mol. Cell. Biol., 16, 977–989 (1996). In addition, the construct also has the following 3 amino acid substitutions: L457V, C488A, and C584S.
(§1) The production of ADP from ATP that accompanies phosphoryl transfer was coupled to oxidation of NADH using phosphoenolpyruvate (PEP) and a system having pyruvate kinase (PK) and lactic dehydrogenase (LDH). The oxidation of NADH was monitored by following the decrease of absorbance at 340 nm (e340=6.22 cm^−1 mM^−1) using a Beckman DU 650 spectrophotometer. Assay conditions for phosphorylated VEGF-R2A50 (indicated as FLVK-P in the tables below) were the following: 1 mM PEP; 250 μM NADH; 50 units of LDH/mL; 20 units of PK/mL; 5 mM DTT; 5.1 mM poly(E4Y1); 1 mM ATP; and 25 mM MgCl2 in 200 mM HEPES, pH 7.5. Assay conditions for unphosphorylated VEGF-R2Δ50 (indicated as FLVK in the tables) were the following: 1 mM PEP; 250 μM NADH; 50 units of LDH/mL; 20 units of PK/mL; 5 mM DTT; […]; 3 mM ATP; and 60 mM MgCl2 and 2 mM MnCl2 in 200 mM HEPES, pH 7.5. Assays were initiated with 5 to 40 nM of enzyme. Ki values were determined by measuring enzyme activity in the presence of varying concentrations of test compounds. The data were analyzed using Enzyme Kinetic and Kaleidagraph software.
The spectrophotometric assay was carried out as described above for VEGF-R2, except for the following changes in concentration: FGF-R=50 nM, ATP=2 mM, and poly(E4Y1)=15 mM.

[2] = target: T2, unphosphorylated VEGF-R2Δ50 (Homo sapiens, UniProt P35968, DEL940-989/E990V); experiment: VEGF-R2 coupled spectrophotometric assay, unphosphorylated construct (FLVK); assay type: biochemical; settings: % inhibition at 50 nM compound; read-out: FLVK Ki % inh @ 50 nM
T2 construct: VEGF-R2Δ50 contains residues 806–939 and 990–1171; made in house; host or cells: baculovirus/insect cell system
Text: This construct determines the ability of a test compound to inhibit tyrosine kinase activity. A construct (VEGF-R2Δ50) of the cytosolic domain of human vascular endothelial growth factor receptor 2 (VEGF-R2) lacking the 50 central residues of the 68 residues of the kinase insert domain was expressed in a baculovirus/insect cell system. Of the 1356 residues of full-length VEGF-R2, VEGF-R2Δ50 contains residues 806–939 and 990–1171, and also one point mutation (E99OV) within the kinase insert domain relative to wild-type VEGF-R2. Autophosphorylation of the purified construct was performed by incubation of the enzyme at a concentration of 4 μM in the presence of 3 mM ATP and 40 mM MgCl2 in 100 mM HEPES, pH 7.5, containing 5% glycerol and 5 mM DTT, at 4° C. for 2 h. […] See Parast et al., Biochemistry, 37,16788–16801 (1998).
as §1

PDGFRβ = target: T3, PDGFRβ (Homo sapiens, UniProt P09619); experiment: PAE-PDGFRβ Phosphorylation in PAE-PDGFRB Cells Assay; assay type: cell-based; settings: PAE cells overexpressing human PDGFRβ; read-out: PAE PDGFR autophos IC50
T3 construct: expressed in transfected cells; host or cells: porcine aorta endothelial (PAE) cells
Experimental: This assay determines the ability of a test compound to inhibit the autophosphorylation of PDGFRβ in porcine aorta endothelial (PAE)-PDGFRβ cells. PAE cells that overexpress human PDGFRβ were used in this assay. The cells were cultured in Ham's F12 media supplemented with 10% fetal bovine serum (FBS) and 400 ug/ml G418. Twenty thousands cells were seeded in each well of a 96-well plate in 50 μL of growth media and allowed to attach for 6 hours at 37° C. Cells were then exposed to the starvation media (Ham's F12 media supplemented with 0.1% FBS) for 16 hours. After the starvation period was over, 10 μL of test agent in 5% DMSO in starvation media were added to the test wells and 10 μL of the vehicle (5% DMSO in starvation media) were added into the control wells. The final DMSO concentration in each well was 0.5%. Plates were incubated at 37° C. for 1 hour and the cells were then stimulated with 1 μg/mL PDGF-BB (R & D System) in the presence of 2 mM Na3VO4 for 8 minutes. The cells were washed once with 1 mm Na3VO4 in HBSS and lysed by adding 50 μL per well of lysis buffer. One hundred μL of dilution buffer were then added to each well and the diluted cell lysate was transferred to a 96-well goat ant-rabbit coated plate (Pierce), which was pre-coated with Rabbit anti Human PDGFRβ antibody (Santa Cruz). The plates were incubated at room temperature for 2 hours and washed seven times with 1% Tween 20 in PBS. HRP-PY20 (Santa Cruz) was diluted and added to the plate for a 30-minute incubation. Plates were then washed again and TMB peroxidase substrate (Kirkegaard & Perry) was added for a 10-minute incubation. One hundred μL of 0.09 N H2SO4 was added into each well of the 96-well plate to stop the reaction. Phosphorylation status was assessed by spectrophotometer reading at 450 nm. IC50 values were calculated by curve fitting using a four-parameter analysis.

T3 sequence (P09619 33-1106): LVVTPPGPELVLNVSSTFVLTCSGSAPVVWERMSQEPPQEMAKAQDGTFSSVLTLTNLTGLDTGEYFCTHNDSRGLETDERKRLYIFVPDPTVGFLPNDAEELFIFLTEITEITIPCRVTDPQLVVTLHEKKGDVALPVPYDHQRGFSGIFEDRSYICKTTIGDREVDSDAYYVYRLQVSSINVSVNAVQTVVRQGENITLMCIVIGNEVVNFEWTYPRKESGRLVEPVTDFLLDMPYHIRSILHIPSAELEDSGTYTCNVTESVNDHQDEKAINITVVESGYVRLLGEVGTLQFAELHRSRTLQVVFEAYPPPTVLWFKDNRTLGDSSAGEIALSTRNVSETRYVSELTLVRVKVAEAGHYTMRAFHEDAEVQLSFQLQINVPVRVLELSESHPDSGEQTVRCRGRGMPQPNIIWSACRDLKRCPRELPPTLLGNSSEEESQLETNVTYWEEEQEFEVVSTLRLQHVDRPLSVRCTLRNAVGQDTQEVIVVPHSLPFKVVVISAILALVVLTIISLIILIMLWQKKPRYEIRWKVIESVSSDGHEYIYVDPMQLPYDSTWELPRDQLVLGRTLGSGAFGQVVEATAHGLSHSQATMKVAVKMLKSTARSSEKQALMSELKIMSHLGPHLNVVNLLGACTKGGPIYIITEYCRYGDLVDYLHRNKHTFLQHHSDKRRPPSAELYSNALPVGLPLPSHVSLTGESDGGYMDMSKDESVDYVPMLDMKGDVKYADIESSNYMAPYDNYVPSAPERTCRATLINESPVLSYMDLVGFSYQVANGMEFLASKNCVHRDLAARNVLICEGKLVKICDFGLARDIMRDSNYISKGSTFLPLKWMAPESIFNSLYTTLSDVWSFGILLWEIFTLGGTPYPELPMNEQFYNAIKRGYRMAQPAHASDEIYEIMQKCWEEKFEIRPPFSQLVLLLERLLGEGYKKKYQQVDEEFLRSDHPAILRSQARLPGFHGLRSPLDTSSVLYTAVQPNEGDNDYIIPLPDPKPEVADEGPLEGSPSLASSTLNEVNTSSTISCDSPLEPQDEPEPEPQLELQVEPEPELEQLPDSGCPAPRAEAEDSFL
T2 sequence (P35968 with tags, fused parts or gaps DEL940-989/E990V limits assumed): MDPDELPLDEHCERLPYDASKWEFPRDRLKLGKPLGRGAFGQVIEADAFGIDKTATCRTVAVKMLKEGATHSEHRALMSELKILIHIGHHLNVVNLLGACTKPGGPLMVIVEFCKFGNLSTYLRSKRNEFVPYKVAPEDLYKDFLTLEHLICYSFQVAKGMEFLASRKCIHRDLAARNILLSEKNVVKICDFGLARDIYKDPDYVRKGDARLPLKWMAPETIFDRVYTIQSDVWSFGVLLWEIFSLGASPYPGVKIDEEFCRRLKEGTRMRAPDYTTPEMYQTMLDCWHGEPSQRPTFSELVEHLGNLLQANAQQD
T1 sequence (P11362 456-766 L457V/C488A/C584S): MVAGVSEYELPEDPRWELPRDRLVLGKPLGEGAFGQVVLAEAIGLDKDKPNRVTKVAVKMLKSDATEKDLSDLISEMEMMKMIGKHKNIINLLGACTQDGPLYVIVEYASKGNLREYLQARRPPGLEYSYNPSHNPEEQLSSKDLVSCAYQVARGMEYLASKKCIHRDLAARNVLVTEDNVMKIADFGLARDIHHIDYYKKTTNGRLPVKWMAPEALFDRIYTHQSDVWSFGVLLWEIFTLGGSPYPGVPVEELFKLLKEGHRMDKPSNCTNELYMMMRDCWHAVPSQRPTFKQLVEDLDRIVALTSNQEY

Compound | IC50 [1] [nM] | inhibition at 1 µM (FGF-R1) [%] | inhibition at 0.05 µM [2] [%] | IC50 (PDGFRβ) [nM]
C#CCNC(=O)c1ccccc1Nc1ccc2c(C(=O)NC)n[nH]c2c1 [Example 1(k), 6-(2-Prop-2-ynylcarbamoyl-phenylamino)-1H-indazole-3-carboxylic acid methylamide] | > 10 | 12 | 27 | –
C#CCNC(=O)c1ccccc1Nc1ccc2c(/C=C/c3cc(C)cc(C)n3)n[nH]c2c1 [Example 13, N-(prop-2-ynyl)-2-{3-[(E)-2-(2,4-dimethyl-pyridin-2-yl)-vinyl]-1H-indazol-6-ylamino}-benzamide] | – | 63 | 80 | 6
CC(=O)OCC#CCNC(=O)c1ccccc1Nc1ccc2c(/C=C/c3cc(C)cc(C)n3)n[nH]c2c1 [Example 20, Acetic acid 4-(2-{3-[(E)-2-(4,6-dimethyl-pyridin-2-yl)-vinyl]-1H-indazol-6-ylamino}-benzoylamino)-but-2-ynyl ester] | 0.084 | 35 | 91 | –
Cc1cc(C)nc(/C=C/c2n[nH]c3cc(Nc4ncccc4C(=O)NCC#CC4CC4)ccc23)c1 [Example 25, N-(3-Cyclopropyl-prop-2-ynyl)-2-{3-[(E)-2-(4,6-dimethyl-pyridin-2-yl)-vinyl]-1H-indazol-6-ylamino}-nicotinamide] | 3 | 13 | 64 | –
C=C(C)CNC(=O)c1ccccc1Nc1ccc2c(/C=C/c3cc(C)ccn3)n[nH]c2c1 [Example 34, N-(2-Methyl-allyl)-2-{[(E)-2-(4-methyl-pyridin-2-yl)-vinyl]-1H-indazol-6-ylamino}-benzamide] | – | – | 72 | 4.5
Cc1ccnc(/C=C/c2n[nH]c3cc(Nc4ccccc4C(=O)NCc4cccc(C)n4)ccc23)c1 [Example 39, N-(6-Methyl-pyridin-2-ylmethyl)-2-{3-[2-(4-methyl-pyridin-2-yl)-vinyl]-1H-indazol-6-ylamino}-benzamide] | – | 76 | 96 | 4.7
Cc1ccnc(/C=C/c2n[nH]c3cc(Nc4ccccc4C(=O)NCc4nc5ccccc5n4C)ccc23)c1 [Example 45, N-(1-Methyl-1H-benzoimidazol-2-ylmethyl)-2-{3-[(E)2-(4-methyl-pyridin-2-yl)-vinyl]-1H-indazol-6-ylamino}-benzamide] | – | 24 | 28 | –
Cc1ccnc(/C=C/c2n[nH]c3cc(Nc4ccccc4C(=O)NCc4nccn4C)ccc23)c1 [Example 49, N-(1-Methyl-1H-imidazol-2-ylmethyl)-2-{3-[2-(4-methyl-pyridin-2-yl)-vinyl]-1H-indazol-6-ylamino}-benzamide] | – | 36 | 11 | –
Cc1ccnc(/C=C/c2n[nH]c3cc(Nc4ccccc4C(=O)NCC#CCO)ccc23)c1 [Example 51, 2-{3-[(E)-2-(4-Methyl-pyridin-2-yl)-vinyl]-1H-indazol6-ylamino}-N-(4-hydroxy-but-2-ynyl)-benzamide] | – | 52 | 82 | –
O=C(NCC#CC1CC1)c1ccccc1Nc1ccc2c(/C=N/n3cccc3)n[nH]c2c1 [Example 55, N-(3-Cyclopropyl-prop-2-ynyl)-2-[3-(pyrrol-1-yliminomethyl)-1H-indazol-6-ylamino]-benzamide] | 0.2 | 67 | 97 | 3.7
O=C(NCC#CCO)c1ccccc1Nc1ccc2c(/C=N/n3cccc3)n[nH]c2c1 [Example 57, N-(4-Hydroxy-but-2-ynyl)-2-[3-(pyrrol-1-yliminomethyl)-1H-indazol-6-ylamino]-benzamide] | < 1.8 | 52 | 91 | 1.3
C#CCNC(=O)c1ccccc1Nc1ccc2c(/C=N/n3cccc3)n[nH]c2c1 [Example 63, N-Prop-2-ynyl-2-[3-(pyrrol-1-yliminomethyl)-1H-indazol-6-ylamino]-benzamide] | 0.1 | 63 | 85 | 2.4
